Experimental data from patent US11161860B2, “Compound having effects of inhibiting phosphodiesterase 4, preparation method thereof and pharmaceutical use thereof” (Hefei Industrial Pharmaceutical Institute Co., Ltd., priority 2018, dated 2021).
Marks after values point to notes of the source that are not given here.

Columns and labels:
PDE4A enzyme = target: T1, PDE4A enzyme (Homo sapiens, UniProt P27815); experiment: Inhibition of the activity of PDE4A enzyme (fluorescence polarization, Transcreener AMP2/GMP2); type: biochemical; conditions: 1 h, mean ± spread; for remaining activity at 0.01 µM: 0.01 μM compound; for remaining activity at 0.1 µM: 0.1 μM compound; for remaining activity at 1 µM: 1 μM compound
T1 construct: GST (N); host or cells: Sf9 insect cells (baculovirus)
Description: The PDE4A enzyme expressed from baculovirus is labeled with N-terminal GST from Sf9 insect cells. A specified PDE4A enzyme and 1 mM cAMP are added to the newly prepared pH 7.5 Tris buffer, the enzyme solution is transferred into reaction wells, and the compound is sonicated in DMSO and then added to the enzyme solution for culturing for 10 minutes at room temperature; the substrate solution is poured into the reaction wells to initiate the reaction and cultured at room temperature for 1 hour, and a detection tracer (AMP2/GMP2 AlexaFluor 633 Tracer) and an antibody (Transcreener® AMP2/GMP2 Antibody) are added to stop the reaction for culturing for 90 minutes with gentle mixing. […]

[1] = system: DNCB-induced atopic dermatitis mice; experiment: DNCB-induced dermatitis mouse model, skin thickness; type: in vivo, female BALB/C mice; conditions: for reduction of the thickness of the dermis compared with Crisaborole / reduction of the thickness of the epidermis compared with Crisaborole / reduction of the thickness of the dermis compared with the compound Y5 / reduction of the thickness of the epidermis compared with the compound Y5: 50 mg/mL topical; for reduction of the thickness of the dermis compared with Crisaborole / reduction of the thickness of the epidermis compared with Crisaborole: statistical comparison vs Crisaborole group; for reduction of the thickness of the dermis compared with the compound Y5 / reduction of the thickness of the epidermis compared with the compound Y5: statistical comparison vs Y5 group; for Epidermal thickness / Dermis thickness: 50 mg/mL, 100 μL applied to back skin, 11 times once a day, Mean ± SD, n = 8; for Epidermal thickness: model 137.76, blank 48.93; for Dermis thickness: model 500.71, blank 194.70
Description: After female BALB/C mice are selected, each weighing 18-22 g, for animal adaptive breeding for 7 days, these are randomly divided into a blank group, a model group, a positive drug Crisaborole group, a hexadecadrol group, and compound groups, with 8 in each group. Except for the mice in the blank group, the remaining mice are applied with 100 μL of a 1% DNCB solution [acetone: olive oil=4:1 (V/V)] on the skin of the back of the shaved mice, and applied continuously for 3 days once a day. Then, dosing treatment starts 4 days after the mice are housed, and the test drug is applied to the back of each group of animals, wherein animals in the blank group and the model group are applied with a corresponding solvent, the positive drug Crisaborole group and hexadecadrol group are applied with 50 mg/mL of a corresponding drug, and the administration group is applied with 50 mg/mL of a corresponding compound, with 100 μL for each mouse; after application of 4 hours, 0.5% DNCB solution is applied for secondary challenge, and repeated administration and challenge treatment are performed 11 times, once a day. 24 hours after the last administration, the animals are sacrificed, and the back skins (1×0.4 cm^2) are taken and fixed in 10% formalin buffer to make pathological sections and perform HE staining; then, the epidermal and dermal layers are observed under a 100× […], and 5 areas are selected for detection of and recording the skin thickness, and then the average value is taken to represent the final thicknesses of the epidermal layer and dermal layer, respectively.

T1 sequence (P27815 whole entry, species assumed): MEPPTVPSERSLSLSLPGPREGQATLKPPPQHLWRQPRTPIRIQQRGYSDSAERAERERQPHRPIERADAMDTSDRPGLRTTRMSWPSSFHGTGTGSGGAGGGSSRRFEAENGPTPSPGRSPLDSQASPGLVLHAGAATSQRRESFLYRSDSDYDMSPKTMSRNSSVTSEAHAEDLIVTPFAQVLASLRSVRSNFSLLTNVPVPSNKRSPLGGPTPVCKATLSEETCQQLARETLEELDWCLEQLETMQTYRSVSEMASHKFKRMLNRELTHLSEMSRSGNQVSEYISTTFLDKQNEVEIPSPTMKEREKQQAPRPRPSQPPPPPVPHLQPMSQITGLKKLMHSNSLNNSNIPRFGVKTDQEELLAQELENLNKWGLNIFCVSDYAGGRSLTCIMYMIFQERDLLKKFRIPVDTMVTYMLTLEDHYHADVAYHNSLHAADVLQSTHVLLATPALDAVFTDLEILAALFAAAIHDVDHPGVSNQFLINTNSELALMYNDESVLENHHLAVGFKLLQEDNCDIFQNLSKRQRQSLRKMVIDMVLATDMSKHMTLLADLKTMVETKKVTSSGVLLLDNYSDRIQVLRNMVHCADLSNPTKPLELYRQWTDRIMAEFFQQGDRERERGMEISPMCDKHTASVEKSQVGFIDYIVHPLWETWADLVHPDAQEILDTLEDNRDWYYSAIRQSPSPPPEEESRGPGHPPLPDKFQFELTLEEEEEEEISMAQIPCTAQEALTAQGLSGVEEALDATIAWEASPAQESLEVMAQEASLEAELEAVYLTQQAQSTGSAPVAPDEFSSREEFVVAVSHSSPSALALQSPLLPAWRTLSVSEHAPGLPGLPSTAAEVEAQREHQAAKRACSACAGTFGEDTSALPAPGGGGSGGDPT

## CC(=O)c1ccc2nc(Oc3ccc4c(c3)COB4O)ccc2c1 [PD-14]
PDE4A enzyme
  remaining activity at 0.01 µM: 3.57 ± 1.08%
  remaining activity at 0.1 µM: 1.26 ± 1.17%
  remaining activity at 1 µM: 0.15 ± 0.1%
[1]
  reduction of the thickness of the dermis compared with Crisaborole: significantly reduce the thickness of the dermis of dermatitis mice (P≤0.01)
  reduction of the thickness of the epidermis compared with Crisaborole: significantly reduce the thickness of the epidermis (P≤0.01)
  reduction of the thickness of the dermis compared with the compound Y5: significantly reduce the thickness of the dermis of dermatitis mice (P≤0.01)
  reduction of the thickness of the epidermis compared with the compound Y5: significantly reduce the thickness of the epidermis (P≤0.01)
  Epidermal thickness: 75.24 ± 7.98 aa μm
  Dermis thickness: 365.40 ± 21.95 ^a a μm

## OB1OCc2cc(Oc3ccc4cc(C(F)(F)F)c(Cl)cc4n3)ccc21 [PD-15]
PDE4A enzyme
  remaining activity at 0.01 µM: 2.09 ± 0.99%
  remaining activity at 0.1 µM: 0.54 ± 0.5%
  remaining activity at 1 µM: 1.08 ± 0.4%
[1]
  reduction of the thickness of the dermis compared with Crisaborole: significantly reduce the thickness of the dermis of dermatitis mice (P≤0.01)
  reduction of the thickness of the epidermis compared with Crisaborole: significantly reduce the thickness of the epidermis (P≤0.01)
  reduction of the thickness of the dermis compared with the compound Y5: significantly reduce the thickness of the dermis of dermatitis mice (P≤0.01)
  reduction of the thickness of the epidermis compared with the compound Y5: significantly reduce the thickness of the epidermis (P≤0.01)
  Epidermal thickness: 74.28 ± 8.26**^##aa μm
  Dermis thickness: 376.62 ± 23.73 ^a a μm

## N#Cc1cc2ccc(Oc3ccc4c(c3)COB4O)nc2cc1Cl [PD-16]
PDE4A enzyme
  remaining activity at 0.01 µM: 1.05 ± 1.26%
  remaining activity at 0.1 µM: 0.45 ± 0.3%
  remaining activity at 1 µM: 0.21 ± 0.57%
[1]
  reduction of the thickness of the dermis compared with Crisaborole: significantly reduce the thickness of the dermis of dermatitis mice (P≤0.01)
  reduction of the thickness of the epidermis compared with Crisaborole: significantly reduce the thickness of the epidermis (P≤0.01)
  reduction of the thickness of the dermis compared with the compound Y5: significantly reduce the thickness of the dermis of dermatitis mice (P≤0.05)
  reduction of the thickness of the epidermis compared with the compound Y5: significantly reduce the thickness of the epidermis (P<0.05)
  Epidermal thickness: 78.64 ± 9.75 a μm
  Dermis thickness: 388.46 ± 24.06 a μm

## OB1OCc2cc(Oc3cc(C(F)(F)F)c4cc(C(F)(F)F)ccc4n3)ccc21 [PD-17]
PDE4A enzyme
  remaining activity at 0.01 µM: 4.17 ± 0.99%
  remaining activity at 0.1 µM: 1.89 ± 0.6%
  remaining activity at 1 µM: 0.77 ± 0.39%
[1]
  reduction of the thickness of the dermis compared with Crisaborole: significantly reduce the thickness of the dermis of dermatitis mice (P≤0.01)
  reduction of the thickness of the epidermis compared with Crisaborole: significantly reduce the thickness of the epidermis (P≤0.01)
  reduction of the thickness of the dermis compared with the compound Y5: significantly reduce the thickness of the dermis of dermatitis mice (P≤0.01)
  Epidermal thickness: 80.76 ± 10.51 μm
  Dermis thickness: 380.74 ± 20.15 ^a a μm

## COC(=O)c1ccc2nc(Oc3ccc4c(c3)COB4O)cc(C(F)(F)F)c2c1 [PD-18]
PDE4A enzyme
  remaining activity at 0.01 µM: 1.52 ± 0.44%
  remaining activity at 0.1 µM: 0.46 ± 0.35%
  remaining activity at 1 µM: 0.13 ± 0.06%
[1]
  Epidermal thickness: 90.35 ± 11.20 μm
  Dermis thickness: 436.16 ± 35.42 μm

## CC(=O)c1ccc2nc(Oc3ccc4c(c3)COB4O)cc(C(F)(F)F)c2c1 [PD-19]
PDE4A enzyme
  remaining activity at 0.01 µM: 4.22 ± 0.86%
  remaining activity at 0.1 µM: 1.56 ± 0.48%
  remaining activity at 1 µM: 0.54 ± 0.47%
[1]
  Epidermal thickness: 96.05 ± 9.75 μm
  Dermis thickness: 441.12 ± 30.17 μm

## COC(=O)c1ccc2nc(Oc3ccc4c(c3)COB4O)cc(F)c2c1 [PD-20]
PDE4A enzyme
  remaining activity at 0.01 µM: 6.13 ± 0.93%
  remaining activity at 0.1 µM: 3.64 ± 0.48%
  remaining activity at 1 µM: 1.78 ± 0.5%
[1]
  Epidermal thickness: 98.74 ± 10.55 μm
  Dermis thickness: 438.14 ± 29.71 μm

## OB1OCc2cc(Oc3cc(F)c4cc(C(F)(F)F)ccc4n3)ccc21 [PD-21]
PDE4A enzyme
  remaining activity at 0.01 µM: 1.64 ± 0.55%
  remaining activity at 0.1 µM: 0.33 ± 0.23%
  remaining activity at 1 µM: 0.28 ± 0.14%
[1]
  reduction of the thickness of the dermis compared with Crisaborole: significantly reduce the thickness of the dermis of dermatitis mice (P≤0.01)
  reduction of the thickness of the epidermis compared with Crisaborole: significantly reduce the thickness of the epidermis (P≤0.01)
  reduction of the thickness of the dermis compared with the compound Y5: significantly reduce the thickness of the dermis of dermatitis mice (P≤0.05)
  reduction of the thickness of the epidermis compared with the compound Y5: significantly reduce the thickness of the epidermis (P≤0.01)
  Epidermal thickness: 70.62 ± 7.12 ^aa μm
  Dermis thickness: 383.34 ± 24.40**^##a μm

## N#Cc1ccc2nc(Oc3ccc4c(c3)COB4O)cc(F)c2c1 [PD-22]
PDE4A enzyme
  remaining activity at 0.01 µM: 7.16 ± 1.04%
  remaining activity at 0.1 µM: 3.06 ± 0.27%
  remaining activity at 1 µM: 1.78 ± 0.63%
[1]
  Epidermal thickness: 103.45 ± 11.74 μm
  Dermis thickness: 447.77 ± 33.37 μm

## OB1OCc2cc(Oc3ccc4cc(C(F)(F)F)ccc4c3)ccc21 [PD-23]
PDE4A enzyme
  remaining activity at 0.01 µM: 9.26 ± 0.73%
  remaining activity at 0.1 µM: 4.51 ± 0.94%
  remaining activity at 1 µM: 2.45 ± 0.76%
[1]
  Epidermal thickness: 97.34 ± 8.36 μm
  Dermis thickness: 435.56 ± 27.08 μm

## COC(=O)c1cccc2cc(Oc3ccc4c(c3)COB4O)ccc12 [PD-24]
PDE4A enzyme
  remaining activity at 0.01 µM: 9.17 ± 1%
  remaining activity at 0.1 µM: 7.31 ± 1.16%
  remaining activity at 1 µM: 2.64 ± 0.56%
[1]
  reduction of the thickness of the dermis compared with Crisaborole: significantly reduce the thickness of the dermis of dermatitis mice (P≤0.05)
  reduction of the thickness of the epidermis compared with Crisaborole: significantly reduce the thickness of the epidermis of the dermatitis mice (P≤0.05)
  Epidermal thickness: 91.17 ± 9.03 μm
  Dermis thickness: 420.33 ± 24.75 μm

## N#Cc1ccc2cc(Oc3ccc4c(c3)COB4O)ccc2c1 [PD-25]
PDE4A enzyme
  remaining activity at 0.01 µM: 7.17 ± 0.64%
  remaining activity at 0.1 µM: 1.95 ± 1.18%
  remaining activity at 1 µM: 2.27 ± 0.74%
[1]
  reduction of the thickness of the dermis compared with Crisaborole: significantly reduce the thickness of the dermis of dermatitis mice (P≤0.05)
  reduction of the thickness of the epidermis compared with Crisaborole: significantly reduce the thickness of the epidermis of the dermatitis mice (P≤0.05)
  Epidermal thickness: 87.77 ± 10.58 μm
  Dermis thickness: 412.42 ± 26.74 μm

## N#Cc1ccc2nc(Cl)cc(Oc3ccc4c(c3)COB4O)c2c1 [PD-26]
PDE4A enzyme
  remaining activity at 0.01 µM: 12.8 ± 1.82%
  remaining activity at 0.1 µM: 7.23 ± 1.83%
  remaining activity at 1 µM: 2.04 ± 0.24%
[1]
  reduction of the thickness of the dermis compared with Crisaborole: significantly reduce the thickness of the dermis of dermatitis mice (P≤0.01)
  reduction of the thickness of the epidermis compared with Crisaborole: significantly reduce the thickness of the epidermis of the dermatitis mice (P≤0.05)
  Epidermal thickness: 83.94 ± 7.63 μm
  Dermis thickness: 408.97 ± 23.06 μm

## COC(=O)c1ccc2nc(Cl)cc(Oc3ccc4c(c3)COB4O)c2c1 [PD-27]
PDE4A enzyme
  remaining activity at 0.01 µM: 12.9 ± 1.86%
  remaining activity at 0.1 µM: 9.49 ± 1.59%
  remaining activity at 1 µM: 2.69 ± 1.77%
[1]
  Epidermal thickness: 97.73 ± 8.95 μm
  Dermis thickness: 430.05 ± 27.90 μm

## OB1OCc2cc(Oc3cc(Cl)nc4ccc(C(F)(F)F)cc34)ccc21 [PD-28]
PDE4A enzyme
  remaining activity at 0.01 µM: 9.14 ± 0.89%
  remaining activity at 0.1 µM: 4.42 ± 0.64%
  remaining activity at 1 µM: 2.1 ± 0.93%
[1]
  Epidermal thickness: 70.51 ± 12.45 μm
  Dermis thickness: 352.69 ± 30.77**^aa μm
